Consider four compounds from article PMC3326523, “Histone Recognition and Large-Scale Structural Analysis of the Human Bromodomain Family” (Cell, 2012).

Like-named read-outs stand apart in the source and are kept apart here. Where no end group is shown, it is not given here.

In one test the target is T1, CREBBP (Homo sapiens, UniProt Q92793).
T1 construct: His6 tag with TEV cleavage site (N, cleaved yes); made in house; host or cells: E. coli BL21(DE3)-R3
The test is described as follows: Isothermal titration calorimetry (ITC) of histone peptides. The format is binding.

The test system of a further test is 33 representative BRDs. The test is described as follows: SPOT peptide array of singly acetylated histone peptides. The format is binding, human. The following applies: His6-tagged BRDs 1 μM; in words. The procedure: Peptides were synthesized on cellulose membranes using a MultiPep SPOT peptide arrayer (Intavis). His6-tagged BRDs were added to a final concentration of 1 μM, and blots were developed using an ECL kit (Thermo Scientific) following the manufacturer's protocol.
Three different types of SPOT membrane were utilized in order to probe preferences of BRD recognition sites: the first array contained peptides from all four core histones (H2A, H2B, H3 and H4) covering all possible lysine acetylation sites, with peptide sizes ranging from 10 to 14 amino acids. […]
Peptides for the first two arrays were synthesized directly on cellulose membranes (Intavis) using a MultiPep SPOT peptide arrayer (Intavis) and commercially available standard (Intavis) or modified (Bachem) L-amino acid precursors as previously described ([Nady et al., 2008]). The quality of the synthesized array was evaluated as follows: i) immune reactive peptides were identified by incubation of the membrane with an anti-His antibody in the absence of any His6-tagged BRD. […]
Each membrane was washed 3 times in PBST, blocked for 1 hr with 10% milk in PBST, and washed again 3 × 5 min with PBST. […] Chem-illuminescence was detected with an Image reader (Fujifilm LAS-4000 ver.2.0) with an incremental exposure time of 5 min for a total of 80 min. […]

T1 sequence (Q92793 with tags, fused parts or gaps): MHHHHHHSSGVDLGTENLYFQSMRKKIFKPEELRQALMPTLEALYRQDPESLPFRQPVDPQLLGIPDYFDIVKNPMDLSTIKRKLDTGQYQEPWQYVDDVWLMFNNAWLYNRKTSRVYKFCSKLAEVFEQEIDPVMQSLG

What is called Kd is a measure of binding affinity in units of concentration. For `CC(=O)NCCCC[C@H](NC(=O)CNC(=O)CNC(=O)[C@@H](NC(=O)[C@H](COP(=O)(O)O)NC(=O)[C@@H](N)CCCCN)[C@@H](C)O)C(=O)N[C@@H](C)C(=O)N1CCC[C@H]1C(=O)N[C@@H](CCCNC(=N)N)C(=O)N[C@@H](CCCCNC(C)=O)C(=O)N[C@@H](CCC(N)=O)C(=O)N[C@@H](Cc1ccc(O)cc1)C(=O)O` [H3pS10K14acK18ac], at CREBBP (ITC, 10 or 15°C, 50 mM HEPES pH 7.5, 150 mM NaCl, read-out: KD of CREBBP), the Kd amounted to 131 µM.

At CREBBP, `CC(=O)NCCCC[C@H](NC(=O)CNC(=O)CNC(=O)[C@@H](NC(=O)[C@H](CO)NC(=O)[C@@H](N)CCCCN)[C@@H](C)O)C(=O)N[C@@H](C)C(=O)N1CCC[C@H]1C(=O)N[C@@H](CCCNC(=N)N)C(=O)N[C@@H](CCCCN)C(=O)N[C@@H](CCC(N)=O)C(=O)N[C@@H](Cc1ccc(O)cc1)C(=O)O` [H3K14ac] had a Kd of 733 µM. On to “H2AK36: promiscuous H2AK36-containing array peptide (LLRK(Ac)GNYSERVGA)”, for which, in the test on 33 representative BRDs, the “interaction with BRDs in SPOT array of singly acetylated peptides” value was “interacted with most BRDs”.

With “H2BK85: promiscuous H2BK85-containing array peptide (AHYNK(Ac)RSTITSRE)”, in the test on 33 representative BRDs, the “interaction with BRDs in SPOT array of singly acetylated peptides” value is “interacted with most BRDs”.
